Earlier results, collected in patent publication US20220211620A1, “Pain Relieving Spray” (Animal Ethics Pty Ltd, priority 2019, published 2022).

Conditions: up to about; depending on the method of administration

With `CCCCN1CCCCC1C(=O)Nc1c(C)cccc1C` (stereo not shown) [bupivacaine] as the molecule, how does the “duration of anaesthesia typically provided” value read?
Its value is 6 to 12 h.
